# Laboratory results from patent publication US8835462B2, “Macrocyclic picolinamides as fungicides” (Dow AgroSciences LLC, priority 2012, dated 2014).
# Read-outs that look alike come from different tables or passages of the source.
# Experiments:
# Type in all cases: in vivo
# Leptosphaeria nodorum = test: Wheat glume blotch (LEPTNO) fungicidal activity; conditions: Parastagonospora nodorum, 24 h, 1 Day Protectant, read-out: Disease Control LEPTNO 1DP
# Protocol: Technical grades of materials were dissolved in acetone, which were then mixed with nine volumes of water containing 110 ppm Triton X-100. The fungicide solutions were applied onto wheat seedlings using an automated booth sprayer to run-off. All sprayed plants were allowed to air dry prior to further handling. Wheat plants (variety Yuma) were grown from seed in a greenhouse in 50% mineral soil/50% soil-less Metro mix until the first leaf was fully emerged, with 7-10 seedlings per pot. These plants were inoculated with an aqueous spore suspension of Septoria tritici either prior to or after fungicide treatments. After inoculation the plants were kept in 100% relative humidity (one day in a dark dew chamber followed by two to three days in a lighted dew chamber at 20° C.) to permit spores to germinate and infect the leaf. The plants were then transferred to a greenhouse set at 20° C. for disease to develop. When disease symptoms were fully expressed on the 1st leaves of untreated plants, infection levels were assessed on a scale of 0 to 100 percent disease severity. Percent disease control was calculated using the ratio of disease severity on treated plants relative to untreated plants. Evaluation of Fungicidal Activity: Wheat Glume Blotch (Leptosphaeria Nodorum; Bayer Code […]) Wheat plants (variety Yuma) were grown from seed in a greenhouse in 50% mineral soil/50% soil-less Metro mix until the first leaf was fully emerged, with 7-10 seedlings per pot. These plants were inoculated with an aqueous spore suspension of Leptosphaeria nodorum 24 hr after fungicide treatments. After inoculation the plants were kept in 100% relative humidity (one day in a dark dew chamber followed by two days in a lighted dew chamber at 20° C.) to permit spores to germinate and infect the leaf. The plants were then transferred to a greenhouse set at 20° C. for disease to develop. Fungicide formulation, application and disease assessment followed the procedures as described in the Example A.
# Puccinia triticina = test: Wheat brown rust (PUCCRT) fungicidal activity on wheat seedlings
# Method in brief: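 Compounds in acetone diluted with nine volumes water containing 110 ppm Triton X-100, sprayed to run-off on first-leaf Yuma wheat seedlings inoculated with P. triticina spores before or after treatment. Dark dew room 22° C, 100% RH overnight, then greenhouse 24° C; percent disease control from severity (0-100%) relative to untreated plants.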
# Venturia inaequalis = test: Apple scab (VENTIN) fungicidal activity; conditions: 24 h, 1 Day Protectant, read-out: Disease Control VENTIN 1DP
# Protocol: Technical grades of materials were dissolved in acetone, which were then mixed with nine volumes of water containing 110 ppm Triton X-100. The fungicide solutions were applied onto wheat seedlings using an automated booth sprayer to run-off. All sprayed plants were allowed to air dry prior to further handling. Wheat plants (variety Yuma) were grown from seed in a greenhouse in 50% mineral soil/50% soil-less Metro mix until the first leaf was fully emerged, with 7-10 seedlings per pot. These plants were inoculated with an aqueous spore suspension of Septoria tritici either prior to or after fungicide treatments. After inoculation the plants were kept in 100% relative humidity (one day in a dark dew chamber followed by two to three days in a lighted dew chamber at 20° C.) to permit spores to germinate and infect the leaf. The plants were then transferred to a greenhouse set at 20° C. for disease to develop. When disease symptoms were fully expressed on the 1st leaves of untreated plants, infection levels were assessed on a scale of 0 to 100 percent disease severity. Percent disease control was calculated using the ratio of disease severity on treated plants relative to untreated plants. Evaluation of Fungicidal Activity: Apple Scab (Venturia Inaequalis; Bayer Code […]) Apple seedlings (variety McIntosh) were grown in soil-less Metro mix, with one plant per pot. Seedlings with two expanding young leaves at the top (older leaves at bottom of the plants were trimmed) were used in the test. Plants were inoculated with a spore suspension of Venturia inaequalis 24 hr after fungicide treatment and kept in a 22° C. dew chamber with 100% RH for 48 hr, and then moved to a greenhouse set at 20° C. for disease to develop. Fungicide formulation, application and disease assessment on the sprayed leaves followed the procedures as described in the Example A.
# Uncinula necator = test: Grape powdery mildew (UNCINE) fungicidal activity; conditions: Erysiphe necator, 24 h, 1 Day Protectant, read-out: Disease Control UNCINE 1DP
# Protocol: Technical grades of materials were dissolved in acetone, which were then mixed with nine volumes of water containing 110 ppm Triton X-100. The fungicide solutions were applied onto wheat seedlings using an automated booth sprayer to run-off. All sprayed plants were allowed to air dry prior to further handling. Wheat plants (variety Yuma) were grown from seed in a greenhouse in 50% mineral soil/50% soil-less Metro mix until the first leaf was fully emerged, with 7-10 seedlings per pot. These plants were inoculated with an aqueous spore suspension of Septoria tritici either prior to or after fungicide treatments. After inoculation the plants were kept in 100% relative humidity (one day in a dark dew chamber followed by two to three days in a lighted dew chamber at 20° C.) to permit spores to germinate and infect the leaf. The plants were then transferred to a greenhouse set at 20° C. for disease to develop. When disease symptoms were fully expressed on the 1st leaves of untreated plants, infection levels were assessed on a scale of 0 to 100 percent disease severity. Percent disease control was calculated using the ratio of disease severity on treated plants relative to untreated plants. Evaluation of Fungicidal Activity: Grape Powdery Mildew (Uncinula Necator; Bayer Code […]) Grape seedlings (variety Carignane) were grown in soil-less Metro mix, with one plant per pot, and used in the test when approximately one month old. Plants were inoculated 24 hr after fungicide treatment by shaking spores from infected leaves over test plants. Plants were maintained in a greenhouse set at 20° C. until disease was fully developed. Fungicide formulation, application and disease assessment on the sprayed leaves followed the procedures as described in the Example A.
# [1] = 24 h, 1 Day Protectant, read-out: Disease Control PUCCRT 1 DP
# [2] = 72 h, 3 Day Curative, read-out: Disease Control PUCCRT 3 DC
Compound,pest or weed control at 100 ppm (Leptosphaeria nodorum),pest or weed control at 100 ppm (Puccinia triticina; [1]),pest or weed control at 100 ppm (Puccinia triticina; [2]),pest or weed control at 100 ppm (Venturia inaequalis),pest or weed control at 100 ppm (Uncinula necator)
COc1ccnc(C(=O)N[C@H]2COC[C@H](Cc3ccccc3)[C@@H](OC(=O)C3CC3)[C@H](C)OC2=O)c1OCOC(C)=O [Compound 38],80 to 100%,80 to 100%,80 to 100%,0 to 80%,0 to 80%
CCCO[C@@H]1[C@@H](Cc2ccccc2)COC[C@H](NC(=O)c2nccc(OC)c2OCOC(C)=O)C(=O)O[C@H]1C [Compound 22],80 to 100%,80 to 100%,80 to 100%,80 to 100%,80 to 100%
"COc1ccnc(C(=O)N[C@H]2COC[C@H](Cc3ccccc3)[C@@H](OCC(C)C)[C@H](C)OC2=O)c1OC(=O)OC(C)C [Compound 10, 2-(((3S,7S,8R,9S)-7-benzyl-8-isobutoxy-9-methyl-2-oxo-1,5-dioxonan-3-yl)carbamoyl)-4-methoxypyridin-3-yl isopropyl carbonate]",80 to 100%,80 to 100%,80 to 100%,80 to 100%,0 to 80%
"COc1ccnc(C(=O)N[C@H]2COC[C@H](Cc3ccccc3)[C@@H](OCC(C)C)[C@H](C)OC2=O)c1OCOC(C)=O [Compound 8, (2-((3S,7S,8R,9S)-7-benzyl-8-isobutoxy-9-methyl-2-oxo-1,5-dioxonan-3-ylcarbamoyl)-4-methoxypyridin-3-yloxy)methyl acetate]",80 to 100%,80 to 100%,80 to 100%,80 to 100%,80 to 100%
COc1ccnc(C(=O)N[C@H]2COC[C@H](Cc3ccccc3)[C@@H](OC(=O)c3ccccc3)[C@H](C)OC2=O)c1OCOC(C)=O [Compound 37],80 to 100%,80 to 100%,80 to 100%,0 to 80%,0 to 80%
COc1ccnc(C(=O)N[C@H]2COC[C@H](Cc3ccccc3)[C@@H](OCCC(=O)N(C)C)[C@H](C)OC2=O)c1OCOC(C)=O [Compound 15],0 to 80%,0 to 80%,0 to 80%,0 to 80%,0 to 80%
